Reference: PubChem BioAssay AID588468 (NMMLSC, 2011)
Active and inactive are the calls of the source.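 The calls were made as follows: active = compounds whose thermal stabilization response of the kinase is above zero; inactive = the rest.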

Target: Beta-adrenergic receptor kinase 1 (Homo sapiens) (UniProt P25098)
Test: direct GRK2 binders by thermal shift, late-stage follow-up, orthogonal assay for GRK2 aptamer-displacement inhibitor project, biophysical, Thermofluor, set 2 (AID 588468)
Conditions: purified GRK2 thermal shift, ANS fluorescence; at 200 µM; stronger effect = higher value

Chain of Beta-adrenergic receptor kinase 1 (Homo sapiens) (P25098 whole entry, looked up): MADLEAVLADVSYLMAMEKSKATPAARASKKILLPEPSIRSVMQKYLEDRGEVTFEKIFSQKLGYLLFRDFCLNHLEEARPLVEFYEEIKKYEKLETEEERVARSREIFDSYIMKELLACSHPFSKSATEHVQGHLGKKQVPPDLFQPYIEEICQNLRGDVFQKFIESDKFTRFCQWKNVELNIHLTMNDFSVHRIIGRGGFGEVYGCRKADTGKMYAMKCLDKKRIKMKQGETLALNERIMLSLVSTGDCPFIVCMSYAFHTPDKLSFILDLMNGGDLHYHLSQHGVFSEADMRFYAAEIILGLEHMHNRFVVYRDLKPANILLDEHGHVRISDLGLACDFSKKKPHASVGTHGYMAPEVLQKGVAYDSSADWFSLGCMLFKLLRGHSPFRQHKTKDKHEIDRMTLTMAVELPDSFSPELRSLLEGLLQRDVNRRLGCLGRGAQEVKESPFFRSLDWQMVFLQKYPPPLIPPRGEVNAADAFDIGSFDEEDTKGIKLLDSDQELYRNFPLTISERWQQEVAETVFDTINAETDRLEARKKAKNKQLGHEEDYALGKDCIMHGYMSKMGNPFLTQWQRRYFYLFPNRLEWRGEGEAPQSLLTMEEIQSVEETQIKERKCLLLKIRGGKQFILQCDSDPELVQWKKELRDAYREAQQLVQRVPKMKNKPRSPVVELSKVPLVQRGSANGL

| SMILES | thermal stabilization response |
| --- | --- |
| CC(=O)N1CCN(Cc2nc3cc(Cl)ccc3c(=O)[nH]2)CC1 | -41.4% (inactive) |
| Cc1cc2ccccc2n1CCNC(=O)C(C)Oc1ccccc1 (stereo not drawn) | -116% (inactive) |
| C#CCSc1nc2sc3c(c2c(=O)n1C)CCC3 | 21.3% |
| O=C(CSc1nc2ccccc2c(=O)n1-c1ccccc1)NC(=O)CN1CCCC1=O | -62% (inactive) |
| O=C(CCS(=O)(=O)c1ccc(Br)s1)Nc1ccccc1Br | -73.1% (inactive) |
| CC(CS(=O)(=O)c1ccc2c(c1)NC(=O)CS2)C(=O)NCc1ccccc1Cl (stereo not drawn) | -20.4% (inactive) |
| O=C(CN1CCc2ccccc21)NC(=O)NCc1ccccc1 | 25.7% |
| O=C(O)Cc1ccc(-n2cccc2)cc1 | -127% (inactive) |
| Cc1ccccc1NC(=O)CCS(=O)(=O)c1ccc(Br)s1 | 116% |
| NS(=O)(=O)c1ccc(CCNC(=O)CCS(=O)(=O)c2ccc(Br)cc2)cc1 | -107% (inactive) |
| O=C(CCS(=O)(=O)c1ccc(Br)cc1)NCc1cccs1 | -152% (inactive) |
| COc1ccc(NC(=O)CCS(=O)(=O)c2ccc(Br)s2)cc1 | -93.6% (inactive) |
| COC(=O)c1ccccc1NC(=O)CCS(=O)(=O)c1ccc(Br)s1 | -184% (inactive) |

Now from value to molecule:

| thermal stabilization response | SMILES |
| --- | --- |
| 1.04% | Cc1ccc(CCNC(=O)CCS(=O)(=O)c2ccc(Br)cc2)cc1 |
| -34.7% (inactive) | O=C(CCS(=O)(=O)c1ccc(Br)cc1)Nc1ccc(Br)cc1F |
| -62.8% (inactive) | COC(=O)c1ccc(NC(=O)CCS(=O)(=O)c2ccc(Br)cc2)cc1 |
| -16.1% (inactive) | CCOc1ccccc1NC(=O)CCS(=O)(=O)c1ccc(Br)cc1 |
| -85.1% (inactive) | COc1ccc([N+](=O)[O-])cc1NC(=O)CCS(=O)(=O)c1ccc(Br)cc1 |
| -25.9% (inactive) | CCOc1ccc(NC(=O)CCS(=O)(=O)c2ccc(Br)cc2)cc1 |
| 44.5% | Cc1cccc(CCNC(=O)CCS(=O)(=O)c2ccc(Br)cc2)c1 |
| -74.6% (inactive) | COc1ccc(CCNC(=O)CCS(=O)(=O)c2ccc(Br)cc2)cc1OC |
| -601% (inactive) | COc1ccc(Cl)cc1NC(=O)CCS(=O)(=O)c1ccc(Br)cc1 |
| 72% | CCN(CC)c1ccc(NC(=O)CCS(=O)(=O)c2ccc(Br)cc2)c(C)c1 |
